From PubChem BioAssay (NCI)
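Each compound was tested at five concentrations against cells in 96-well plates for 48 hours. TGI is the concentration that stops growth completely.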

What was measured:
Assay in all cases: NCI tumour cell line growth inhibition, 48 h
786-0 renal = test system: 786-0 renal
A498 renal = test system: A498 renal
A549 NSCLC = test system: A549 NSCLC
ACHN renal = test system: ACHN renal
CAKI-1 renal = test system: CAKI-1 renal
CCRF-CEM leukemia = test system: CCRF-CEM leukemia
DLD-1 colon = test system: DLD-1 colon
DMS 114 small cell lung = test system: DMS 114 small cell lung
DMS 273 small cell lung = test system: DMS 273 small cell lung
EKVX NSCLC = test system: EKVX NSCLC
HCC-2998 colon = test system: HCC-2998 colon
HCT-116 colon = test system: HCT-116 colon
HCT-15 colon = test system: HCT-15 colon
HL-60(TB) leukemia = test system: HL-60(TB) leukemia
HOP-62 NSCLC = test system: HOP-62 NSCLC
HOP-92 NSCLC = test system: HOP-92 NSCLC
HT29 colon = test system: HT29 colon
IGROV1 ovarian = test system: IGROV1 ovarian
K-562 leukemia = test system: K-562 leukemia
KM12 colon = test system: KM12 colon
KM20L2 colon = test system: KM20L2 colon
LOX IMVI melanoma = test system: LOX IMVI melanoma
M14 melanoma = test system: M14 melanoma
M19-MEL melanoma = test system: M19-MEL melanoma
MALME-3M melanoma = test system: MALME-3M melanoma
MOLT-4 leukemia = test system: MOLT-4 leukemia
NCI-H226 lung = test system: NCI-H226 lung
NCI-H23 lung = test system: NCI-H23 lung
NCI-H460 lung = test system: NCI-H460 lung
NCI-H522 lung = test system: NCI-H522 lung
OVCAR-3 ovarian = test system: OVCAR-3 ovarian
OVCAR-4 ovarian = test system: OVCAR-4 ovarian
OVCAR-5 ovarian = test system: OVCAR-5 ovarian
OVCAR-8 ovarian = test system: OVCAR-8 ovarian
RPMI-8226 leukemia = test system: RPMI-8226 leukemia
RXF 393 renal = test system: RXF 393 renal
RXF-631 renal = test system: RXF-631 renal
SF-268 CNS = test system: SF-268 CNS
SF-295 CNS = test system: SF-295 CNS
SF-539 CNS = test system: SF-539 CNS
SK-MEL-2 melanoma = test system: SK-MEL-2 melanoma
SK-MEL-28 melanoma = test system: SK-MEL-28 melanoma
SK-MEL-5 melanoma = test system: SK-MEL-5 melanoma
SK-OV-3 ovarian = test system: SK-OV-3 ovarian
SN12C renal = test system: SN12C renal
SNB-19 CNS = test system: SNB-19 CNS
SNB-75 CNS = test system: SNB-75 CNS
SNB-78 CNS = test system: SNB-78 CNS
SW-620 colon = test system: SW-620 colon
TK-10 renal = test system: TK-10 renal
U251 CNS = test system: U251 CNS
UACC-257 melanoma = test system: UACC-257 melanoma
UACC-62 melanoma = test system: UACC-62 melanoma
UO-31 renal = test system: UO-31 renal

## CCCCC[C@@H]1CCCC2NC(CCCCCO[Si](c3ccccc3)(c3ccccc3)C(C)(C)C)CCC21 (some centres undefined)
786-0 renal
  TGI: 33.2 µM
A498 renal
  TGI: 31.9 µM
A549 NSCLC
  TGI: 33.9 µM
ACHN renal
  TGI: 26.5 µM
CAKI-1 renal
  TGI: 29 µM
CCRF-CEM leukemia
  TGI: 26.7 µM
DLD-1 colon
  TGI: 28.1 µM
DMS 114 small cell lung
  TGI: 28.1 µM
DMS 273 small cell lung
  TGI: 32.4 µM
EKVX NSCLC
  TGI: 34.3 µM
HCC-2998 colon
  TGI: 25.1 µM
HCT-116 colon
  TGI: 23.7 µM
HCT-15 colon
  TGI: 25.7 µM
HL-60(TB) leukemia
  TGI: 23 µM
HOP-62 NSCLC
  TGI: 36.8 µM
HOP-92 NSCLC
  TGI: 22.8 µM
HT29 colon
  TGI: 16.1 µM
IGROV1 ovarian
  TGI: 32.9 µM
K-562 leukemia
  TGI: 20.9 µM
KM12 colon
  TGI: 25.4 µM
KM20L2 colon
  TGI: 23.8 µM
LOX IMVI melanoma
  TGI: 28.1 µM
M14 melanoma
  TGI: 27.3 µM
M19-MEL melanoma
  TGI: 31.8 µM
MALME-3M melanoma
  TGI: 36.9 µM
MOLT-4 leukemia
  TGI: 29.4 µM
NCI-H226 lung
  TGI: 36.6 µM
NCI-H23 lung
  TGI: 31.7 µM
NCI-H460 lung
  TGI: 31.7 µM
NCI-H522 lung
  TGI: 31.6 µM
OVCAR-3 ovarian
  TGI: 30.7 µM
OVCAR-4 ovarian
  TGI: 21 µM
OVCAR-5 ovarian
  TGI: 34.8 µM
OVCAR-8 ovarian
  TGI: 32.7 µM
RPMI-8226 leukemia
  TGI: 22.2 µM
RXF 393 renal
  TGI: 25.4 µM
RXF-631 renal
  TGI: 27.7 µM
SF-268 CNS
  TGI: 38.2 µM
SF-295 CNS
  TGI: 31.3 µM
SF-539 CNS
  TGI: 29.8 µM
SK-MEL-2 melanoma
  TGI: 31 µM
SK-MEL-28 melanoma
  TGI: 32.2 µM
SK-MEL-5 melanoma
  TGI: 35.3 µM
SK-OV-3 ovarian
  TGI: 36.8 µM
SN12C renal
  TGI: 28.4 µM
SNB-19 CNS
  TGI: 32.7 µM
SNB-75 CNS
  TGI: 30 µM
SNB-78 CNS
  TGI: 30.2 µM
SW-620 colon
  TGI: 31.6 µM
TK-10 renal
  TGI: 34.8 µM
U251 CNS
  TGI: 27.8 µM
UACC-257 melanoma
  TGI: 29 µM
UACC-62 melanoma
  TGI: 34.9 µM
UO-31 renal
  TGI: 26.6 µM
